Like-named read-outs stand apart in the source and are kept apart here. Square brackets hold non-standard residues; d marks the D form. Peptide text beside a SMILES is read from it. Phe(ol) = N[C@H](CO)Cc1ccccc1; Leu(ol) = CC(C)C[C@H](N)CO; dIva = CC[C@@](C)(N)C(=O)O; Aib = CC(C)(N)C(=O)O
Legend:
[1] = Electrophysiology: reconstitution into planar lipid bilayers; details: for channel activity in planar lipid bilayers: 1 μM peptaibol, DPhPc bilayers, pH 7.0 saline; for Channel Induction: Figure 7A summary; on Channel Induction: key: -: A '–' indicates a negative finding; a single '+' indicates a positive finding; a double '++' indicates a strong positive finding
Description: Ion channel formation by peptaibols was evaluated with reconstitution into planar lipid bilayers using the Orbit Mini workstation (Nanion). Bilayers were formed from a 5 mg/ml decane solution of 1,2-diphytanoyl-sn-glycero-3-phosphocholine (DPhPc, Avanti Polar Lipids) across 100 μm diameter orifices in the MECA 4 recording chip with 4 microcavities. The bilayers were bathed with saline (in mM: 70 NaCl, 70 KCl, 2.5 MgCl2, 2 CaCl2, 10 HEPES, 10 MES, 10 glucose, pH 7.0) at both faces, with resistances of up to 500 GΩ before channel incorporation. Peptaibols were added from a 10 mM DMSO stock to the cis chamber at a final 1 μM concentration; spontaneous incorporation into the bilayer typically occurred within 10–15 min. Recordings were acquired at 20 kHz and filtered at 1.25 kHz.

red blood cell (RBC) = experiment: Percent hemolysis determination; type: cell-based, human; details: for Hemolytic Potential: Figure 7A summary; for hemolysis at 25 μM: RBCs in PBS, 1% hematocrit, 1 h, 37°C, absorbance 550 nm, 0.01% saponin control, biological triplicate; on Hemolytic Potential: key: -: A '–' indicates a negative finding; a single '+' indicates a positive finding; a double '++' indicates a strong positive finding
Description: Hemolysis assay performed as outlined in Duvall et al. with some modifications.[63] Whole blood was first washed and resuspended in PBS to isolate RBCs. Compound was then added in serial dilutions to PBS with 1% hematocrit, with vehicle or 0.01% saponin used as controls. Plates were incubated for 1 h at 37°C then centrifuged for 10 min at 900 x g. Supernatant was then transferred to a clear plate and absorbance was read at 550 nm. Extended incubation with compound (up to 3 days) was performed during assay optimization, with no changes noted in percent hemolysis.

[2] = test system: HZ NPDG-I-resistant Dd2 clones (pfmdr1 mutants); type: cell-based, P. falciparum; details: for pfMDR1 Clone Sensitivity: Figure 7A summary; for Fold Change in IC50 vs the parental line, clone 1B2 / Fold Change in IC50 vs the parental line, clone 1E2 / Fold Change in IC50 vs the parental line, clone 2B3 / Fold Change in IC50 vs the parental line, clone 3A3: Figure S5, 72 h, SYTO 61 flow cytometry; on pfMDR1 Clone Sensitivity: key: -: A '–' indicates a negative finding; a single '+' indicates a positive finding; a double '++' indicates a strong positive finding
Description: Screening of HZ NPDG-I resistant clones was performed at 1% parasitemia, 0.2% hematocrit with flow cytometry in V-shaped 96-well plates. Briefly, compounds were subjected to a 3-fold serial dilution with the highest concentration set at 4 μM or 8 μM. Eleven dilution points were included in addition to no-drug controls. Three technical replicates were set up for each compound at each dilution point. The Dd2-B2 parent line, or the clonal line 1B2, 2B3, 3A3, or 1E2 were added at 0.4% hematocrit and 1% parasitemia to the diluted compounds at a 1:1 ratio. The plate was incubated at 37°C for 72 h in a chamber filled with a hypoxic gas mixture (3% oxygen, 5% carbon dioxide, and 92% nitrogen). After incubation, a blood pellet was formed at the bottom of each well of the 96-well plate. Supernatant was removed without disturbing the pellet, and 20 μl of SYTO 61(1:10,000 dilution; Thermo Fisher Scientific, Cat No. S11343) in PBS was added to each well and incubated for 15 mins at room temperature. The cells in each well were then diluted with 180 μl of PBS and subjected to flow cytometry for parasitemia determination using the HTS (High-Throughput Sampler) of BD FACSCanto II (BD Biosciences, NJ). Flow cytometry data was analyzed using FlowJo Version 10.4.0. Dose response curves were generated and IC50 values obtained with GraphPad Prism Version 9.1.1.
A clone of the Dd2 strain (Dd2-B2) of P. falciparum was used for in vitro evolution of resistance against harzianin NPDG I. Three flasks of 1.2 x 10^8 parasites were continuously exposed to a stepwise-increasing concentration of the compound over ∼3 months starting from 20 nM up to a final concentration of 100 nM. Once a stable rightward shift in 72 h IC50 was observed, cultures were subjected to limiting dilution to obtained harzianin-resistant clones. Each clone was expanded, phenotyped to confirm resistance, and submitted for whole genome sequencing. An untreated flask of Dd2-B2 parasites was maintained in parallel throughout the course of in vitro selection as a control.

[3] = test system: Dd2 strain parasites, digestive vacuole; experiment: Transmission electron microscopy of treated parasites; further: key: -: A '–' indicates a negative finding; a single '+' indicates a positive finding; a double '++' indicates a strong positive finding; type: cell-based, P. falciparum; details: Figure 7A summary
Description: For TEM imaging, samples were prepared as previously described.[67] […] Culture was collected by centrifugation and washed with PBS, pH 7.4. Samples were then fixed in 2% paraformaldehyde, 2.5% glutaraldehyde, in a 0.1 M sodium cacodylate buffer, pH of 7.4, (Electron Microscopy Sciences, Hatfield, PA) and incubated for 2 h at room temp with mild shaking. After fixation, samples were pelleted and stored cold but not frozen in 0.2 M sodium cacodylate buffer prior to staining and embedment in Eponate 12 resin (Ted Pella Inc.). Images were taken using a JEOL 1200 EX transmission electron microscope (JEOL USA Inc., Peabody MA) and processed in AMT Image Capture Engine V602 software (Advanced Microscopy Techniques, Woburn, MA.).

PfMDR1 cKD parasite line = experiment: MDR1 compound susceptibility assay (Renilla luciferase); type: cell-based, P. falciparum; details: for pfMDR1 cKD Sensitivity: Figure 7A summary / graphical abstract; for shift in sensitivity upon PfMDR1 knockdown: with (0.5 μM) vs without aTc, 72 h, luminescence
Description: A conditional knockdown parasite line was generated for the P. falciparum multi-drug resistance 1 (MDR1; PF3D7_0523000) following previously described procedures.[84]^,[85] The native PfMDR1 locus was engineered using CRISPR/SpCas9 to afford transcriptional fusion of 10 tandem TetR-DOZI binding aptamers in the 3′UTR for anhydrotetracycline (aTc)-dependent regulation of PfMDR1 expression.
As a control cell line, a parasite line expressing an aptamer-regulatable fluorescent protein integrated in the cg6 locus[84] was assayed in parallel. Synchronous ring-stage parasites in the presence (0.5 μM) and absence of aTc were dispensed into 384-well polystyrene microplates (Corning®), and compounds added using the Janus® platform (PerkinElmer). DMSO- and DHA (0.5 μM) served as normalization controls for maximal and minimum signal. Luminescence was measured after 72 h and IC50 values were obtained from normalized dose-response curves using GraphPad Prism Version 8.

SMILES: CC[C@H](C)[C@H](NC(=O)[C@H](C)NC(=O)[C@@H]1CCCN1C(=O)C(C)(C)NC(=O)[C@H](CC(C)C)NC(=O)[C@H](CCC(N)=O)NC(=O)[C@@](C)(CC)NC(C)=O)C(=O)NC(C)(C)C(=O)N1CCC[C@H]1C(=O)N[C@](C)(CC)C(=O)N[C@@H](CC(C)C)C(=O)NC(C)(C)C(=O)N1CCC[C@H]1C(=O)N[C@H](CO)CC(C)C [HZ NPDG-H, harzianin NPDG H] (Ac-[dIva]QL[Aib]PAI[Aib]P[dIva]L[Aib]P[Leu(ol)])
- channel activity in planar lipid bilayers [1]: did not induce detectable channel activity
- Channel Induction [1]: -
- Hemolytic Potential (red blood cell (RBC)): -
- EC50 increase in HZ NPDG-I resistant clones vs parental line ([2]; 4 resistant clones screened): 1.4 fold
- pfMDR1 Clone Sensitivity [2]: -
- Fold Change in IC50 vs the parental line, clone 1B2 [2]: 0.62
- Fold Change in IC50 vs the parental line, clone 1E2 [2]: 0.98
- Fold Change in IC50 vs the parental line, clone 2B3 [2]: 1.14
- Fold Change in IC50 vs the parental line, clone 3A3 [2]: 1.40
- DV Abnormalities [3]: +
- pfMDR1 cKD Sensitivity (PfMDR1 cKD parasite line): +
- shift in sensitivity upon PfMDR1 knockdown (PfMDR1 cKD parasite line): ~6 fold

SMILES: CC[C@@](C)(NC(=O)C(C)(C)NC(=O)[C@H](CC(C)C)NC(=O)[C@@H]1CCCN1C(=O)C(C)(C)NC(=O)[C@H](CC(C)C)NC(=O)CNC(=O)C(C)(C)NC(=O)[C@@H](NC(=O)C(C)(C)NC(=O)[C@H](CCC(N)=O)NC(=O)C(C)(C)NC(=O)C(C)(C)NC(=O)[C@H](C)NC(=O)CNC(=O)C(C)(C)NC(C)=O)C(C)C)C(=O)N[C@@H](CCC(N)=O)C(=O)N[C@H](CO)CC(C)C [TC HA-II, trichorzin HA II] (Ac-[Aib]GA[Aib][Aib]Q[Aib]V[Aib]GL[Aib]PL[Aib][dIva]Q[Leu(ol)])
- channel activity in planar lipid bilayers [1]: did not reveal channel activity
- Channel Induction [1]: -
- hemolysis at 25 μM (red blood cell (RBC)): 53%
- Hemolytic Potential (red blood cell (RBC)): +
- pfMDR1 Clone Sensitivity [2]: -
- DV Abnormalities [3]: +
- shift in sensitivity upon PfMDR1 knockdown (PfMDR1 cKD parasite line): no differential sensitivity

SMILES: CC(=O)NC(C)(C)C(=O)N1CCC[C@H]1C(=O)NC(C)(C)C(=O)N[C@@H](C)C(=O)NC(C)(C)C(=O)N[C@@H](C)C(=O)N[C@@H](CCC(N)=O)C(=O)NC(C)(C)C(=O)N[C@H](C(=O)NC(C)(C)C(=O)NCC(=O)N[C@@H](CC(C)C)C(=O)NC(C)(C)C(=O)N1CCC[C@H]1C(=O)N[C@H](C(=O)NC(C)(C)C(=O)NC(C)(C)C(=O)N[C@@H](CCC(=O)O)C(=O)N[C@@H](CCC(N)=O)C(=O)N[C@H](CO)Cc1ccccc1)C(C)C)C(C)C [Alamethicin, reference compound] (Ac-[Aib]P[Aib]A[Aib]AQ[Aib]V[Aib]GL[Aib]PV[Aib][Aib]EQ[Phe(ol)]; N-terminus assumed)
- hemolysis at 25 μM (red blood cell (RBC)): 73%
- Fold Change in IC50 vs the parental line, clone 1B2 [2]: 0.55
- Fold Change in IC50 vs the parental line, clone 1E2 [2]: 0.45
- Fold Change in IC50 vs the parental line, clone 2B3 [2]: 0.63
- Fold Change in IC50 vs the parental line, clone 3A3 [2]: 0.54
- shift in sensitivity upon PfMDR1 knockdown (PfMDR1 cKD parasite line): no differential sensitivity

SMILES: CC[C@H](C)[C@H](NC(=O)[C@H](CC(C)C)NC(=O)[C@H](CCC(N)=O)NC(=O)[C@@](C)(CC)NC(C)=O)C(=O)NC(C)(C)C(=O)N1CCC[C@H]1C(=O)N[C@](C)(CC)C(=O)N[C@@H](CC(C)C)C(=O)NC(C)(C)C(=O)N1CCC[C@H]1C(=O)N[C@H](CO)CC(C)C [HZ NPDG-I, harzianin NPDG I] (Ac-[dIva]QLI[Aib]P[dIva]L[Aib]P[Leu(ol)])
- channel activity in planar lipid bilayers [1]: reproducibly induced unambiguous channel-like activity
- Channel Induction [1]: +
- Hemolytic Potential (red blood cell (RBC)): -
- pfMDR1 Clone Sensitivity [2]: ++
- Fold Change in IC50 vs the parental line, clone 1B2 [2]: 8.70
- Fold Change in IC50 vs the parental line, clone 1E2 [2]: 5.70
- Fold Change in IC50 vs the parental line, clone 2B3 [2]: 7.00
- Fold Change in IC50 vs the parental line, clone 3A3 [2]: 4.50
- fold change, clone 1D5 ([2]; flask 1, IC50 vs Dd2-B2): 4.65
- fold change, clone 1H3 ([2]; flask 1, IC50 vs Dd2-B2): 7.57
- fold change, clone Harzianin-Dd2-1B2 ([2]; flask 1, IC50 vs Dd2-B2): 8.64
- fold change, clone Harzianin-Dd2-1C12 ([2]; flask 1, IC50 vs Dd2-B2): 9.71
- fold change, clone Harzianin-Dd2-1E2 ([2]; flask 1, IC50 vs Dd2-B2): 5.63
- IC50 ([2]; flask 1, read-out: IC50, clone 1D5): 0.249 nM
- IC50 ([2]; flask 1, read-out: IC50, clone 1H3): 0.406 nM
- IC50 ([2]; flask 1, read-out: IC50, clone Harzianin-Dd2-1B2): 0.463 nM
- IC50 ([2]; flask 1, read-out: IC50, clone Harzianin-Dd2-1C12): 0.52 nM
- IC50 ([2]; flask 1, read-out: IC50, clone Harzianin-Dd2-1E2): 0.302 nM
- fold change, clone 2B7 ([2]; flask 2, IC50 vs Dd2-B2): 3.87
- fold change, clone 2E9 ([2]; flask 2, IC50 vs Dd2-B2): 6.77
- fold change, clone Harzianin-Dd2-2B3 ([2]; flask 2, IC50 vs Dd2-B2): 6.98
- fold change, clone Harzianin-Dd2-2E8 ([2]; flask 2, IC50 vs Dd2-B2): 5.31
- fold change, clone Harzianin-Dd2-2G7 ([2]; flask 2, IC50 vs Dd2-B2): 4.60
- IC50 ([2]; flask 2, read-out: IC50, clone 2B7): 0.0859 nM
- IC50 ([2]; flask 2, read-out: IC50, clone 2E9): 0.15 nM
- IC50 ([2]; flask 2, read-out: IC50, clone Harzianin-Dd2-2B3): 0.155 nM
- IC50 ([2]; flask 2, read-out: IC50, clone Harzianin-Dd2-2E8): 0.118 nM
- IC50 ([2]; flask 2, read-out: IC50, clone Harzianin-Dd2-2G7): 0.102 nM
- fold change, clone 3A5 ([2]; flask 3, IC50 vs DD2-B2): 4.30
- fold change, clone 3B7 ([2]; flask 3, IC50 vs DD2-B2): 4.05
- fold change, clone 3G7 ([2]; flask 3, IC50 vs DD2-B2): 3.98
- fold change, clone Harzianin-Dd2-3A3 ([2]; flask 3, IC50 vs DD2-B2): 4.51
- fold change, clone Harzianin-Dd2-3C6 ([2]; flask 3, IC50 vs DD2-B2): 4.68
- fold change, clone Harzianin-Dd2-3G11 ([2]; flask 3, IC50 vs DD2-B2): 3.93
- IC50 ([2]; flask 3, read-out: IC50, clone 3A5): 0.188 nM
- IC50 ([2]; flask 3, read-out: IC50, clone 3B7): 0.177 nM
- IC50 ([2]; flask 3, read-out: IC50, clone 3G7): 0.174 nM
- IC50 ([2]; flask 3, read-out: IC50, clone Harzianin-Dd2-3A3): 0.197 nM
- IC50 ([2]; flask 3, read-out: IC50, clone Harzianin-Dd2-3C6): 0.204 nM
- IC50 ([2]; flask 3, read-out: IC50, clone Harzianin-Dd2-3G11): 0.172 nM
- DV Abnormalities [3]: +
- pfMDR1 cKD Sensitivity (PfMDR1 cKD parasite line): ++
- shift in sensitivity upon PfMDR1 knockdown (PfMDR1 cKD parasite line): 43 fold
